Results on 23 molecules are retold here after ChEMBL document CHEMBL1147696, “Discovery of bitriazolyl compounds as novel antiviral candidates for combating the tobacco mosaic virus” (2006).

Common to all, as to assay type: functional
Assay [1] concerns Tobacco mosaic virus. In words: Antiviral activity against TMV. The arrangement: concentration or dose not given beside the values.
Assay [2] has as its system Tobacco mosaic virus. Put plainly: Induction of systemic acquired resistance of tobacco plant against TMV at 100 ug/ml by leaf spray treatment.
Assay [3] relates to Tobacco mosaic virus. Put plainly: Induction of systemic acquired resistance of tobacco plant against TMV at 100 ug/ml by soil treatment.

Each structure is given as a SMILES string.

Consider `COc1ccc(-c2cn(-c3n[nH]c(C(N)=O)n3)nn2)cc1`, for which, in the assay on Tobacco mosaic virus [1], the Activity is recorded as 0%.
Still for that read-out and setting: the result for `NC(=O)c1n[nH]c(-n2cc(-c3ccccc3)nn2)n1` reads 0%; that for `COC(=O)c1n[nH]c(-n2cc(-c3ccc(F)cc3)nn2)n1`, 12%; that for `CCCCCc1ccc(-c2cn(-c3n[nH]c(C(=O)OC)n3)nn2)cc1`, 23%.
On to `COC(=O)c1n[nH]c(-n2cc(-c3ccc(C)cc3)nn2)n1`, for which the Activity in the assay with Tobacco mosaic virus [1] came out at 10%.
Take `NC(=O)c1n[nH]c(-n2cc(C3=CCCCC3)nn2)n1`: in the assay on Tobacco mosaic virus [1], the Activity turned out to be 7%.
In the assay on Tobacco mosaic virus [1], `COC(=O)c1n[nH]c(-n2cc(C3(O)CCCCC3)nn2)n1` came in with an Activity of 17%.
As for `COC(=O)c1n[nH]c(-n2cc(COC(C)=O)nn2)n1`, the Activity in the assay on Tobacco mosaic virus [1] is on record as 36%.
In the assay on Tobacco mosaic virus [1], `COC(=O)c1n[nH]c(-n2cc(C3(O)CCCC3)nn2)n1` gave an Activity of 10%.
Consider `NC(=O)c1n[nH]c(-n2cc(C3(O)CCCC3)nn2)n1`, for which the Activity with Tobacco mosaic virus [1] was 13%.
For `COC(=O)c1n[nH]c(-n2cc(-c3ccccc3)nn2)n1`, the Activity with Tobacco mosaic virus [1] worked out at 63%; with Tobacco mosaic virus [2], 10%; with Tobacco mosaic virus [3], 10%.
Turning to `CCOC(=O)c1cn(-c2n[nH]c(C(=O)OC)n2)nn1`, the Activity in the assay on Tobacco mosaic virus [1] was found to be 20%.
Still for that read-out and setting: the result for `NC(=O)c1cn(-c2n[nH]c(C(N)=O)n2)nn1` reads 0%.
Take `CCCCCc1ccc(-c2cn(-c3n[nH]c(C(N)=O)n3)nn2)cc1`: the Activity in the assay with Tobacco mosaic virus [1] was determined as 28%.
In the assay with Tobacco mosaic virus [1], `O=C1NCNC(=O)N1` registered an Activity of 45%.
On to `NC(=O)c1n[nH]c(-n2cc(CO)nn2)n1`, for which the Activity in the assay on Tobacco mosaic virus [1] was 8%.
Molecule `NC(=O)c1n[nH]c(-n2cc(-c3ccc(F)cc3)nn2)n1` came in with an Activity in the assay on Tobacco mosaic virus [1] of 0%.
`COC(=O)c1n[nH]c(-n2cc(-c3ccc(OC)cc3)nn2)n1` gave an Activity in the assay with Tobacco mosaic virus [1] of 15%.
As for `Cc1ccc(-c2cn(-c3n[nH]c(C(N)=O)n3)nn2)cc1`, in the assay on Tobacco mosaic virus [1], the Activity was 6%.
Molecule `NC(=O)c1n[nH]c(-n2cc(C3(O)CCCCC3)nn2)n1` displayed an Activity in the assay on Tobacco mosaic virus [1] of 0%.
For `COC(=O)c1n[nH]c(-n2cc(C3=CCCCC3)nn2)n1`, the Activity in the assay on Tobacco mosaic virus [1] amounted to 75%; in the assay on Tobacco mosaic virus [2], 0%; with Tobacco mosaic virus [3], 0%.
For the molecule `CSC(=O)c1cccc2nnsc12` [ACIBENZOLAR-S-METHYL], the figures for the Activity in the assay on Tobacco mosaic virus [2] and with Tobacco mosaic virus [3] were 95% and 96%, respectively.
Molecule `NC(=O)c1ncn([C@@H]2O[C@H](CO)[C@@H](O)[C@H]2O)n1` [RIBAVIRIN] had an Activity in the assay with Tobacco mosaic virus [1] of 49%.
